Measurements: patent US20210230159A1, “4H-PYRIDO[1,2-A]PYRIMIDIN-4-ONE COMPOUNDS” (Prana Biotechnology Limited, priority 2014, published 2021)

Assay: Hydrogen peroxide (H2O2) inhibition assay (fluorescence, DCF/horseradish peroxidase)
Type: biochemical
Settings: for IC50: HCl salt tested where HCl salt MW is given; for Fe-ASC % (cf. 0.4 uM Fe/Asc; cf. CQ, CQ = 100%) / Cu % ASC (cf. CQ = 100%) / Zn % ASC (cf. CQ = 100%): ascorbic acid as reducing substrate; for Fe-ASC % (cf. 0.4 uM Fe/Asc; cf. CQ, CQ = 100%) / Fe-DA % (cf. 0.4 uM Fe/DA; cf. CQ, CQ = 100%): test compound 0.4 μM, lower values = greater inhibition of H2O2; for Fe-DA % (cf. 0.4 uM Fe/DA; cf. CQ, CQ = 100%): dopamine as reducing substrate
Description: Assay 1. Hydrogen Peroxide Assay
H2O2 is a strong oxidizer and a highly reactive oxygen species that is known to be toxic to surrounding proteins and organelles, inhibiting their function. […] […] H2O2 generated by the system is assessed by measuring the specific fluorescence profile at the excitation and emission wavelengths of 485 and 530 nm respectively, in the presence of test compound. Test compounds were dissolved in DMSO and tested at concentrations of 0.4 μM. Test compounds are ranked according to their capacity to inhibit H2O2 generated by the system where lower values reflect greater ability to inhibit H2O2 production.

| SMILES | IC50 [nM] | Fe-ASC % (cf. 0.4 uM Fe/Asc; cf. CQ, CQ = 100%) [% ASC] | Fe-DA % (cf. 0.4 uM Fe/DA; cf. CQ, CQ = 100%) [%] | Cu % ASC (cf. CQ = 100%) | Zn % ASC (cf. CQ = 100%) |
| --- | --- | --- | --- | --- | --- |
| O=C(NCc1ccncc1)c1cnc2c(O)cccn2c1=O [Compound 1450] | 380 | 126 | 55 | – | – |
| O=c1cc(CNc2ccc(F)cc2)nc2c(O)cccn12 [Compound 1451] | 580 | 136 | 67 | – | – |
| O=C(NCc1ccc(Cl)cc1Cl)c1cnc2c(O)cccn2c1=O [Compound 1452] | 540 | 60 | 49 | – | – |
| O=C(NCc1ccc(C(F)(F)F)cc1)c1cnc2c(O)cccn2c1=O [Compound 1453] | 340 | 79 | 59 | – | – |
| O=C(NCc1ccc(F)c(F)c1)c1cnc2c(O)cccn2c1=O [Compound 1454] | 1000 | 65 | 46 | – | – |
| O=c1cc(CNCc2ccc(C(F)(F)F)cc2)nc2c(O)cccn12 [Compound 1455] | 350 | 82 | 47 | – | – |
| O=c1cc(CNC2CCCCC2)nc2c(O)cccn12 [Compound 1456] | 390 | 122 | 58 | – | – |
| O=c1cc(CNCC2CCCCC2)nc2c(O)cccn12 [Compound 1458] | 580 | 137 | 43 | – | – |
| O=c1cc(CNCc2ccc(F)c(F)c2)nc2c(O)cccn12 [Compound 1459] | 330 | 110 | 48 | – | – |
| O=C(NC1CCCCC1)c1cnc2c(O)cccn2c1=O [Compound 1460, N-cyclohexyl-9-hydroxy-4-oxo-4H-pyrido[1,2-a]pyrimidine-3-carboxamide] | 440 | 92 | 29 | – | – |
| O=C(NCC1CCCCC1)c1cnc2c(O)cccn2c1=O [Compound 1461] | 490 | 59 | 57 | – | – |
| CCCCCCCNC(=O)C1=CNC2C(O)=CC=CN2C1=O (stereo not shown) [Compound 1462] | 460 | 72 | 54 | – | – |
| COc1ccc(CNCc2cc(=O)n3cccc(O)c3n2)cc1OC [Compound 1463] | 590 | 158 | 73 | – | – |
| O=c1cc(CNCc2ccc(OC(F)(F)F)cc2)nc2c(O)cccn12 [Compound 1464] | 470 | 135 | 47 | – | – |
| Cc1ccc(O)c2nc(CN(C)C)cc(=O)n12 [Compound 1466] | 340 | >234 | 47 | – | – |
| Cc1ccc(O)c2nc(CNCc3ccc(F)cc3)cc(=O)n12 [Compound 1467] | 440 | 74 | 42 | – | – |
| Cc1ccc(O)c2nc(CNC3CCCCC3)cc(=O)n12 [Compound 1468] | 210 | 169 | 39 | – | – |
| Cc1ccc(O)c2nc(CNCc3ccc(Cl)cc3)cc(=O)n12 [Compound 1469] | 500 | 63 | 43 | – | – |
| CCCNCc1cc(=O)n2c(C)ccc(O)c2n1 [Compound 1470] | 350 | >234 | 38 | – | – |
| Cc1ccc(O)c2nc(CN3CCCCC3)cc(=O)n12 [Compound 1471] | 300 | 125 | 62 | – | – |
| CN(CCc1ccccn1)Cc1cc(=O)n2cccc(O)c2n1 [Compound 1476] | 230 | 122 | 46 | – | – |
| Cc1ccc(CNCc2cc(=O)n3cccc(O)c3n2)cc1 [Compound 1478] | 3120 | 198 | 75 | – | – |
| CN(Cc1ccc(F)cc1)Cc1cc(=O)n2cccc(O)c2n1 [Compound 1479] | 460 | 147 | 42 | – | – |
| CCCCN(C)Cc1cc(=O)n2cccc(O)c2n1 [Compound 1485] | 530 | 159 | 57 | – | – |
| CCN(CC)Cc1cc(=O)n2c(C)ccc(O)c2n1 [Compound 1490] | 400 | 178 | 55 | – | – |

| SMILES | IC50 [nM] | Fe-ASC % (cf. 0.4 uM Fe/Asc; cf. CQ, CQ = 100%) [% ASC] | Fe-DA % (cf. 0.4 uM Fe/DA; cf. CQ, CQ = 100%) [%] | Cu % ASC (cf. CQ = 100%) | Zn % ASC (cf. CQ = 100%) |
| --- | --- | --- | --- | --- | --- |
| C#CCN(C)Cc1cc(=O)n2c(C)ccc(O)c2n1 [Compound 1491] | 300 | >222 | 48 | – | – |
| Cc1ccc(O)c2nc(CN(C)Cc3ccc(F)cc3)cc(=O)n12 [Compound 1500] | 360 | 171 | 42 | – | – |
| Cc1ccc(O)c2nc(CNCC3CCCCC3)cc(=O)n12 [Compound 1503] | 230 | 204 | 42 | – | – |
| Cc1ccc(O)c2nc(CNCCc3ccccn3)cc(=O)n12 [Compound 1504] | 310 | 160 | 33 | – | – |
| CC1CCN(Cc2cc(=O)n3cccc(O)c3n2)CC1 [Compound 1506] | > 10000 | 161 | 48 | – | – |
| Cc1ccc(O)c2nc(CN3CCC(C)CC3)cc(=O)n12 [Compound 1508] | 170 | 148 | 32 | – | – |
| O=c1cc(CN2CCN(Cc3ccccc3F)CC2)nc2c(O)cccn12 [Compound 1515] | 1000 | 103 | 54 | – | – |
| CN(Cc1cc(=O)n2cccc(O)c2n1)Cc1ccccc1F [Compound 1516] | 300 | 102 | 52 | – | – |
| CN(Cc1cccc(F)c1)Cc1cc(=O)n2cccc(O)c2n1 [Compound 1517] | 350 | 105 | 55 | – | – |
| CN(Cc1cccc(Cl)c1)Cc1cc(=O)n2cccc(O)c2n1 [Compound 1518] | 580 | 84 | 49 | – | – |
| Cc1ccc(O)c2nc(CN(C)Cc3cccc(Cl)c3)cc(=O)n12 [Compound 1519] | 350 | 100 | 47 | – | – |
| CN(Cc1cc(=O)n2cccc(O)c2n1)C1CCCCC1 [Compound 1521] | > 10000 | 123 | 50 | – | – |
| Cc1ccc(O)c2nc(CN3CCN(Cc4ccccc4F)CC3)cc(=O)n12 [Compound 1522-] | 440 | 156 | 47 | – | – |
| Cc1ccc(O)c2nc(CN(C)C3CCCCC3)cc(=O)n12 [Compound 1523] | 700 | 135 | 49 | – | – |
| Cc1ccc(O)c2nc(CN(C)Cc3cccc(F)c3)cc(=O)n12 [Compound 1525] | 320 | 105 | 46 | – | – |
| Cc1ccc(O)c2nc(CN(C)Cc3ccccc3F)cc(=O)n12 [Compound 1527] | 330 | 133 | 64 | – | – |
| Cc1cccc(NCc2cc(=O)n3c(C)ccc(O)c3n2)n1 [Compound 1531] | 1480 | – | – | – | – |
| O=C(c1cnc2c(O)cccn2c1=O)N1CCCC1 [Compound 1532] | 900 | – | – | – | – |
| O=C(c1cnc2c(O)cccn2c1=O)N1CCCCC1 [Compound 1533] | 1190 | – | – | – | – |
| CCCc1cnc2c(O)c(-c3cccnc3)c(Cl)cn2c1=O [Compound 1629, 7-Chloro-9-hydroxy-3-propyl-8-(pyridin-3-yl)-4H-pyrido[1,2-a]pyrimidine-4-one] | – | – | – | Cu 204% ASC | Zn 130% ASC |
| CCCc1cnc2c(O)c(-c3c(C)noc3C)c(Cl)cn2c1=O [Compound 1630] | – | – | – | Cu 213% ASC | Zn 129% ASC |
| CCCc1cnc2c(O)c(CN(C)C)ccn2c1=O [Compound 1631] | – | – | – | Cu 248% ASC | Zn 101% ASC |
| CC(C)c1cnc2c(O)c(CN(C)C)ccn2c1=O [Compound 1632] | – | – | – | Cu 228% ASC | Zn 106% ASC |
| CC(C)c1cnc2c(O)c(-c3cnn(C)c3)ccn2c1=O [Compound 1633] | – | – | – | Cu 17% ASC | Zn 140% ASC |
